From PMC5441637, “The mitochondrial SIR2 related protein 2 (SIR2RP2) impacts Leishmania donovani growth and infectivity” (PLoS Neglected Tropical Diseases, 2017)

Biological target: T1, SIR2 related protein 2 (LdSIR2RP2) (Leishmania donovani, UniProt A0A3S7WXV8)
T1 construct: gene LdCL_230021600; full-length recombinant LdSIR2RP2 (complete ORF, 320 aa; MBP/His tag removed by TEV)
Experiment: […]NAD+ ADP-ribosyltransferase assay on calf thymus histones, SDS-PAGE/PhosphorImager
Type: biochemical

T1 sequence (A0A3S7WXV8 entry or part of it): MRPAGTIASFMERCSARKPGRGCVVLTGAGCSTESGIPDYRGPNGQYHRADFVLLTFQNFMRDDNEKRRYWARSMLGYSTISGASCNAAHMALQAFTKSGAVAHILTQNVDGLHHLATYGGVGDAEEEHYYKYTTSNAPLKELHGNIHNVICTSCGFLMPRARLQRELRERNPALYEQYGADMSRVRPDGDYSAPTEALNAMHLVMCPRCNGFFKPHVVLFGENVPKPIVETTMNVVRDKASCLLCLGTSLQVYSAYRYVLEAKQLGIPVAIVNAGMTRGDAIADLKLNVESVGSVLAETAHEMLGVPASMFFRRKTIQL

How did the “[32P]NAD+ ADP-ribosyltransferase assay on calf thymus histones, SDS-PAGE/Phospho” value turn out when NC(=O)C1CCCc2c1[nH]c1ccc(Cl)cc21 (stereo not drawn) [Ex-527, 6-chloro-2,3,4,9-tetrahydro-1H-carbazole-1-carboxamide] was run?
The value was ~ 50 μM.

With NC(=O)c1cccnc1 [nicotinamide] as the compound, how does the “[32P]NAD+ ADP-ribosyltransferase assay on calf thymus histones, SDS-PAGE/Phospho” value read?
The value was ~ 50 μM.

With O=c1[nH]c(=S)[nH]c(-c2ccccc2)c1Cc1c(O)ccc2ccccc12 [cambinol] as the compound, how does the “[32P]NAD+ ADP-ribosyltransferase assay on calf thymus histones, SDS-PAGE/Phospho” value read?
Its value is ~ 2.5 μM.
